Results as given in patent US9108963B2, “Pyrazolopyridine, pyrazolopyrazine, pyrazolopyrimidine, pyrazolothiophene and pyrazolothiazole compounds as MGLUR4 allosteric potentiators, compositions, and methods of treating neurological dysfunction” (Vanderbilt University, priority 2010, dated 2015).

What was measured:
mGluR5 = target: T1, mGluR5 (Rattus norvegicus, UniProt P31424); experiment: mGluR5 negative allosteric modulation, decrease in response to non-maximal glutamate in HEK cells; assay type: cell-based; conditions: Table 3; read-out: mGlu5 IC50
T1 construct: expressed in transfected cells; host or cells: human embryonic kidney (HEK) cells
T1 sequence (P31424 21-1203): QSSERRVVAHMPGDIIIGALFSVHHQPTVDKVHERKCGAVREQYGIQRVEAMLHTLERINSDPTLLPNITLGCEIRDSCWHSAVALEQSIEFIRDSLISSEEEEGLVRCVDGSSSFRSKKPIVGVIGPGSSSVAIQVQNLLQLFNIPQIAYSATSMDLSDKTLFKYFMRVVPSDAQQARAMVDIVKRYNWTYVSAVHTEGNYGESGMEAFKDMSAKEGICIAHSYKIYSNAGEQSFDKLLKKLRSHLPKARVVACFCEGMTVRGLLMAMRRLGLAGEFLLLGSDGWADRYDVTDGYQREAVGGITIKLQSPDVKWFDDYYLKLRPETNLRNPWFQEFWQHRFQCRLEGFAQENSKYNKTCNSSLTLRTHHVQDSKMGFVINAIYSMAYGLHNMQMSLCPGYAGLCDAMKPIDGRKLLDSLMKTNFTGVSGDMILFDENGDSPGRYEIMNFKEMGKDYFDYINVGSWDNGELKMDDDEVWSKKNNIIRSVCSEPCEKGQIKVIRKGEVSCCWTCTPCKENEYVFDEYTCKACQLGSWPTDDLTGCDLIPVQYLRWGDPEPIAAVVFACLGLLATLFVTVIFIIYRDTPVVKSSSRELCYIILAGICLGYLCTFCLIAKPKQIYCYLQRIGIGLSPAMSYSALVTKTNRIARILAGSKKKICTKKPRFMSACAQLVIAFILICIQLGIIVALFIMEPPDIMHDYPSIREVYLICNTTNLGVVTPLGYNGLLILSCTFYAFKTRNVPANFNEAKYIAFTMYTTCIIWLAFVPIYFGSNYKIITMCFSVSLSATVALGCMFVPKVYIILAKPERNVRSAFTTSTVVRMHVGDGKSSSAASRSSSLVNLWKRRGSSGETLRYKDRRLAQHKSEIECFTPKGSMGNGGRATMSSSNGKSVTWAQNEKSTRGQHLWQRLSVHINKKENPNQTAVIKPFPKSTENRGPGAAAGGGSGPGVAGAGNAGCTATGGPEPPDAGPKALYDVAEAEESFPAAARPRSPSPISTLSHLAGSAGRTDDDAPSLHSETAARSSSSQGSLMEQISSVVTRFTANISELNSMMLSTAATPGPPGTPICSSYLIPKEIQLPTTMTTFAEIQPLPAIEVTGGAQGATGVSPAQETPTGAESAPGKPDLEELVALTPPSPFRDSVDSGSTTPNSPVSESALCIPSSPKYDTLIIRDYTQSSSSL
Description: Embodiments of the present invention are also mGluR5 negative allosteric modulators. Accordingly, in one aspect, the invention relates to compounds that are also useful as negative allosteric modulators of the metabotropic glutamate receptor subtype 5 (mGluR5). Negative allosteric modulators are non-competitive antagonists and can include a range of maximal antagonist activity from partial antagonists to inverse agonists. In one aspect, the present invention relates to compounds that allosterically modulate mGluR5 receptor activity, affecting the sensitivity of mGluR5 receptors to agonists without acting as orthosteric agonists themselves. […] The compounds of the invention can be useful in the treatment neurological and psychiatric disorders associated with glutamate dysfunction and other diseases in which metabotropic glutamate receptors are involved, as further described herein. […] In further aspect, the human embryonic kidney cells are transfected with human mGluR5. In yet a further aspect, human embryonic kidney cells are transfected with mGluR5 of a mammal.
In further aspect, the human embryonic kidney cells are transfected with human mGluR5. In yet a further aspect, human embryonic kidney cells are transfected with mGluR5 of a mammal.

mGluR4 = mGluR4 (UniProt Q14833); experiment: mGluR4 potentiation assay (Ca2+ or thallium flux fluorescence, agonist EC20); assay type: cell-based, human or rat; conditions: Table 3; read-out: mGlu4 EC50
Experimental: The disclosed compounds and compositions can be evaluated for their ability to act as a potentiator of metabotropic glutamate receptor activity, in particular mGluR4 activity, by any suitable known methodology known in the art. For example, Chinese Hamster Ovary (CHO) cells transfected with human mGluR4 or HEK cells co-transfected with rat mGluR4 and the G-protein regulated Inwardly Rectifying Potassium channel (GIRK) were plated in clear bottom assay plates for assay in a Hamamatsu FDSS Fluorometric Plate Reader. The cells were loaded with either a Ca2+-sensitive fluorescent dye or the thallium responsive dye and the plates were washed and placed into a suitable kinetic plate reader. For human mGluR4 assays, a fluorescence baseline was established for 3-5 seconds, the disclosed compounds were then added to the cells, and the response in cells was measured. Approximately two and a half minutes later, a concentration of mGluR4 orthosteric agonist (e.g. glutamate or L-AP4) eliciting approximately 20% (EC20) of the maximal agonist response was added to the cells, and the response was measured. Two minutes later, a concentration of mGluR4 agonist (e.g. glutamate or L-AP4) eliciting 80% (EC80) of the maximal agonist response was added to the cells, and the response was measured. For rat mGluR4/GIRK experiments, a baseline was established for approximately five seconds, disclosed compounds were added, and either an EC20 or EC80 concentration of agonist was added approximately two and one half minutes later.
The above described assay operated in two modes. In the first mode, a range of concentrations of the disclosed compounds are added to cells, followed by a single fixed concentration of agonist. If the compound acts as a potentiator, an EC50 value for potentiation and a maximum extent of potentiation by the compound at this concentration of agonist is determined by non-linear curve fitting. If the compound acts as a noncompetitive antagonist, an IC50 value is determined by non-linear curve fitting. In the second mode, several fixed concentrations of the disclosed compounds are added to various wells on a plate, followed by a range in concentrations of agonist for each concentration of disclosed compound. The EC50 values for the agonist at each concentration of compound are determined by non-linear curve fitting. A decrease in the EC50 value of the agonist with increasing concentrations of the sample compound (a leftward shift of the agonist concentration-response curve) is an indication of the degree of mGluR4 potentiation at a given concentration of the sample compound. A decrease in the maximal response of the agonist with increasing concentrations of the sample compounds, with or without a rightward shift in agonist potency, is an indication of the degree of noncompetitive antagonism at mGluR4. The second mode also indicates whether the sample compounds also affect the maximum response to mGluR4 to agonists.

Compound | IC50 (mGluR5) [nM] | EC50 (mGluR4) [nM]
Clc1cc(Nc2n[nH]c3cccnc23)ccc1Nc1cccnc1 [Example 127, 2-chloro-N4-(1H-pyrazolo[4,3-b]pyridin-3-yl)-N1-(pyridin-3-yl)benzene-1,4-diamine] | 22 | 53.1
Cc1ccnc(Nc2ccc(Nc3n[nH]c4cccnc34)cc2Cl)c1 [Example 129, 2-chloro-N1-(4-methylpyridin-2-yl)-N4-(1H-pyrazolo[4,3-b]pyridin-3-yl)benzene-1,4-diamine] | 970 | 19.4
